Data reported in US11731939B1, “Indole-based chalcone compounds as antibacterial agents” (KING FAISAL UNIVERSITY, priority 2023, dated 2023).
pIC50: −log10 of the molar value. ≈ marks a conversion by molar mass, not a printed value. Like-named read-outs stand apart in the source and are kept apart here.

Columns and labels:
[1] = system: Staphylococcus epidermidis; test: Antibacterial activity, dilution susceptibility test (CLSI M07-A10); type: cell-based
[2] = system: Bacillus subtilis MTCC 441; test: as above; type: cell-based; settings: MTCC441
[3] = system: Enterococcus faecium ATCC 35667; test: as above; type: cell-based; settings: ATCC35667
[4] = system: Enterococcus faecium ATCC 51559 (VRE resistant); test: as above; type: cell-based
[5] = system: Klebsiella pneumonia MTCC 618; test: as above; type: cell-based; settings: Klebsiella pneumoniae, MTCC618
[6] = system: Escherichia coli MTCC 443; test: as above; type: cell-based; settings: MTCC443
[7] = system: Pseudomonas aeruginosa MTCC 741; test: as above; type: cell-based; settings: MTCC741
[8] = system: Staphylococcus aureus ATCC 29213; test: as above; type: cell-based; settings: ATCC29213
[9] = system: Staphylococcus aureus ATCC BAA-1556 (MERSA resistant); test: as above; type: cell-based; settings: ATCCBAA1556
[10] = system: Mycobacterium tuberculosis H37Rv strain; test: Anti-tubercular properties, alamar blue microplate MIC; type: cell-based; settings: 168 h, M. tuberculosis H37Rv, seven days at 37° C., read-out: anti-mycobacterial activity (MIC)
DNA gyrase from E. coli = molecular target: T1, DNA gyrase from E. coli (Escherichia coli, UniProt P0AES4+P0AES6); test: Inhibitory activity on E. coli DNA gyrase (Inspiralis assay); type: biochemical
T1 construct: purchased Inspiralis
Experimental: Inhibitory potencies were investigated utilizing the Inspiralis assay on streptavidin-coated 96-well microtiter plates. First, the plates were rehydrated with buffer (20 mM Tris-HCl with pH 7.6, 0.01% w/v BSA, 0.05% v/v Tween 20, 137 mM NaCl) and the biotinylated oligonucleotide was then immobilized. After washing off the unbound oligonucleotide, the enzyme test was performed. […] Reaction solutions were incubated at 37° C. for 30 min. After that, the TF buffer (50 mM NaOAc with pH 5.0, 50 mM NaCl and 50 mM MgCl2) was added to terminate the enzymatic reaction. After additional incubation for 30 min at rt, during which biotinoligonucleotide-plasmid triplex was formed, the unbound plasmid was washed off using TF buffer and SybrGOLD in T10 buffer (10 mM Tris HCl with pH 8.0 and 1 mM EDTA) was added. The fluorescence was measured with a microplate reader (BioTek Synergy H4, excitation: 485 nm, emission: 535 nm). Initial screening was done at 100 or 10 μM concentration of inhibitors. […] GraphPad Prism software was used to calculate the IC50 values. The result is given as the average value of three independent measurements.

T1 sequence (P0AES4 whole entry, one chain of several): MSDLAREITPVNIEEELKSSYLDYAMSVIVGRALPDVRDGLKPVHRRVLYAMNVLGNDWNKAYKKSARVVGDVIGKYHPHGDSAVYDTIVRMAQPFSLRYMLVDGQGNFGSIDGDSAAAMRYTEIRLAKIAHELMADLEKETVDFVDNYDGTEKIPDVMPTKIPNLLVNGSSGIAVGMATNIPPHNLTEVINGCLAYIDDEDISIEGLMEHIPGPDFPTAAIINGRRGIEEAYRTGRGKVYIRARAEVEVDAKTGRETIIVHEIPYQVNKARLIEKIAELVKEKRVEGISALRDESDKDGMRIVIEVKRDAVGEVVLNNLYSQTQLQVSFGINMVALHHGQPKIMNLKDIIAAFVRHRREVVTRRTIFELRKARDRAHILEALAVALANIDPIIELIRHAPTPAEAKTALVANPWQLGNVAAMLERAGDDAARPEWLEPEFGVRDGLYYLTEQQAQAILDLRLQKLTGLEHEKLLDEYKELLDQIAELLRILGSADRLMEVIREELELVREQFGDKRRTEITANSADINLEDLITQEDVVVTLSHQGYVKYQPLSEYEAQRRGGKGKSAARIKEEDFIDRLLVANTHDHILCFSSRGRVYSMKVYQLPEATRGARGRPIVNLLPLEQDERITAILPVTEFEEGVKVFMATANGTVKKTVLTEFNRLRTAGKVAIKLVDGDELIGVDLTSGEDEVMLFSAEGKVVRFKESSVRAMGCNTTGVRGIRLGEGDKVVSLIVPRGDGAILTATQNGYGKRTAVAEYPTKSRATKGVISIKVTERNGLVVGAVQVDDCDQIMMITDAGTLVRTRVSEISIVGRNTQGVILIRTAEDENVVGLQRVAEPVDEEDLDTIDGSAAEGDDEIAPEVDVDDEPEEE

| SMILES | MIC [1] | MIC ([2]; Bacillus subtilis) | MIC ([3]; Enterococcus faecium) | MIC ([4]; Enterococcus faecium) | MIC [5] | MIC ([6]; Escherichia coli) | MIC ([7]; Pseudomonas aeruginosa) | MIC [8] | MIC [9] | MIC ([1]; read-out: MIC) | MIC ([2]; Bacillus subtilis MTCC 441, read-out: MIC) | MIC ([3]; Enterococcus faecium ATCC 35667, read-out: MIC) | MIC ([4]; Enterococcus faecium ATCC 51559 (VRE resistant), read-out: MIC) | MIC ([5]; Klebsiella pneumonia MTCC 618, read-out: MIC) | MIC ([6]; Escherichia coli MTCC 443, read-out: MIC) | MIC ([7]; Pseudomonas aeruginosa MTCC 741, read-out: MIC) | MIC [10] | pIC50 (DNA gyrase from E. coli) |
| --- | --- | --- | --- | --- | --- | --- | --- | --- | --- | --- | --- | --- | --- | --- | --- | --- | --- | --- |
| CN[C@H](CC(C)C)C(=O)N[C@H]1C(=O)N[C@@H](CC(N)=O)C(=O)N[C@H]2C(=O)N[C@H]3C(=O)N[C@H](C(=O)N[C@H](C(=O)O)c4cc(O)cc(O)c4-c4cc3ccc4O)[C@H](O)c3ccc(c(Cl)c3)Oc3cc2cc(c3O[C@@H]2O[C@H](CO)[C@@H](O)[C@H](O)[C@H]2O[C@H]2C[C@](C)(N)[C@H](O)[C@H](C)O2)Oc2ccc(cc2Cl)[C@H]1O [Vancomycin, reference compound] | 1 µg/mL (≈ 0.69 µM) | 0.5 µg/mL (≈ 0.345 µM) | 0.5 µg/mL (≈ 0.345 µM) | > 128 µg/mL | > 128 µg/mL | > 128 µg/mL | > 128 µg/mL |  |  |  |  |  |  |  |  |  |  |  |
| CNc1cc(F)cc2c(/C=C/C(=O)c3ccc(C(=O)O)cc3)c[nH]c12 [Compound 1, (E)-4-(3-(5-fluoro-7-(methylamino)-1H-indol-3-yl)acryloyl)benzoic acid] |  |  |  |  |  |  |  | 0.75 µg/mL (≈ 2.22 µM) | 0.75 µg/mL (≈ 2.22 µM) | 1 µg/mL (≈ 2.96 µM) | 0.25 µg/mL (≈ 0.739 µM) | 1 µg/mL (≈ 2.96 µM) | 0.5 µg/mL (≈ 1.48 µM) | 0.75 µg/mL (≈ 2.22 µM) | 0.75 µg/mL (≈ 2.22 µM) | 0.5 µg/mL (≈ 1.48 µM) | 2 µg/mL (≈ 5.91 µM) | 6.82 |
